The target of the experiment is recombinant IL4I1 (Homo sapiens (Human), UniProt Q96RQ9). As to the kind of experiment: IL4I1 Enzymatic Assay (Amplex Red/HRP coupled H2O2 detection). In kind it is biochemical. The settings on record: 1 nM IL4I1, 1 mM each Phe/Tyr/Trp, four-hour pre-incubation, 120 minutes reaction, top compound concentration of 10000 nM. The procedure, abridged: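 Recombinant IL4I1 (1 nM final) was pre-incubated 4 h at ambient temperature with compound in 50 mM Hepes pH 7.0, 0.005% Tween20. Reaction ran 120 min with 1 mM each Phe/Tyr/Trp, 0.05 mM Amplex Red and 1 U/mL HRP. Resorufin fluorescence (544/590 nm) was read, and EC50 fitted from ten-point 1:3 titrations (top 10000 nM) by four-parameter regression.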
Sequence of recombinant IL4I1 (Q96RQ9 22-567): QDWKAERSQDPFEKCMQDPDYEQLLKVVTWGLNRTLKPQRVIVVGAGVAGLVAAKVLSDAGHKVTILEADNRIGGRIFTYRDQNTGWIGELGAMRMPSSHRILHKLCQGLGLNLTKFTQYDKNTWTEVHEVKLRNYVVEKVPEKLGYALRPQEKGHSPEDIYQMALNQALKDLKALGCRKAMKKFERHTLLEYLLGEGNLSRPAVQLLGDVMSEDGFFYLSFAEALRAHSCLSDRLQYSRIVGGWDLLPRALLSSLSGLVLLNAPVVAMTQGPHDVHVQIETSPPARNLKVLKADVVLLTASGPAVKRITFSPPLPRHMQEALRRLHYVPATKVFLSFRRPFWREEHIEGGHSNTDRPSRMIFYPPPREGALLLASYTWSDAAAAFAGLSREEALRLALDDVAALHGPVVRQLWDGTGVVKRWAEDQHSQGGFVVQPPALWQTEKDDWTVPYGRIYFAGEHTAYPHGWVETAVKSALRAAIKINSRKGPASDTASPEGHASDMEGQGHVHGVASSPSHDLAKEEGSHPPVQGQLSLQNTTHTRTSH
Regarding `CC1(Nc2ccc(Cc3cc4ccccc4[nH]c3=O)cc2)CNC1` [Example 58, 3-(4-((3-methylazetidin-3-yl)amino)benzyl)quinolin-2(1H)-one], the half-maximal effective concentration (EC50) was found to be 9.8 nM. As for `O=c1[nH]c2ccccc2cc1Cc1nnc(-c2cc(C(F)(F)F)[nH]n2)o1` [Example 28, 3-((5-(5-(trifluoromethyl)-1H-pyrazol-3-yl)-1,3,4-oxadiazol-2-yl)methyl)quinolin-2(1H)-one], the EC50 is 125 nM. Under `O=c1[nH]c2ccccc2cc1Cc1nnc(CC2CC2)o1` [Example 27, 3-((5-(cyclopropylmethyl)-1,3,4-oxadiazol-2-yl)methyl)quinolin-2(1H)-one] stands 70.3 nM; under `CC1(O)CN(C(=O)c2ccc(Cc3cc4ccccc4[nH]c3=O)cc2)C1` [compound 2, 3-(4-(3-hydroxy-3-methylazetidine-1-carbonyl)benzyl)-quinolin-2(1H)-one], 34.8 nM. To `Cc1c(Cc2ccccc2)c(=O)[nH]c2ccccc12` [Example 164, 3-Benzyl-4-methylquinolin-2(1H)-one] belongs 10000 nM; to `N#CC1(c2cccc(Cc3cc4cnccc4[nH]c3=O)c2)CC1` [Example 116, 1-(3-((2-oxo-1,2-dihydro-1,6-naphthyridin-3-yl)methyl)phenyl)cyclopropane-1-carbonitrile], 1.7 nM; to `Cc1c(Cc2cc3ccccc3[nH]c2=O)cnn1C` [Example 109, 3-((1,5-dimethyl-1H-pyrazol-4-yl)methyl)quinolin-2(1H)-one], 39.9 nM. Under `COC(=O)NCc1nnc(Cc2cc3ccccc3[nH]c2=O)o1` [Example 43, methyl ((5-((2-oxo-1,2-dihydroquinolin-3-yl)methyl)-1,3,4-oxadiazol-2-yl)methyl)carbamate] stands 588 nM; under `O=C1COc2ncc(Cc3cc4ccccc4[nH]c3=O)cc2N1` [Example 89, 7-((2-oxo-1,2-dihydroquinolin-3-yl)methyl)-1H-pyrido[2,3-b][1,4]oxazin-2(3H)-one], 4.5 nM. On to `Cc1cc(Cc2cc3ccccc3[nH]c2=O)ccc1CNS(C)(=O)=O` [Example 165, N-(2-methyl-4-((2-oxo-1,2-dihydroquinolin-3-yl)methyl)benzyl)methanesulfonamide], for which the EC50 was found to be 6.2 nM. For the molecule `CC(C)(C#N)c1ccc(Cc2cc3cnccc3[nH]c2=O)cc1` [Example 100, 2-methyl-2-(4-((2-oxo-1,2-dihydro-1,6-naphthyridin-3-yl)methyl)phenyl)propanenitrile], the concentration giving a half-maximal response (EC50) was 7.3 nM. On to `O=C1COc2ccc(Cc3cc4ccccc4[nH]c3=O)c(F)c2N1` [Example 171, 5-Fluoro-6-((2-oxo-1,2-dihydroquinolin-3-yl)methyl)-2H-benzo[b][1,4]oxazin-3(4H)-one], for which the EC50 stood at 7 nM. As for `Cc1cc(Cc2cc3ccccc3[nH]c2=O)cnc1-c1cccc(F)c1` [Example 131, 3-((6-(3-fluorophenyl)-5-methylpyridin-3-yl)methyl)quinolin-2(1H)-one], the 50% effective concentration (EC50) was determined as 3.7 nM. To `CN1C(=O)COc2ccc(Cc3cc4ccccc4[nH]c3=O)cc21` [Example 169, 4-Methyl-6-((2-oxo-1,2-dihydroquinolin-3-yl)methyl)-2H-benzo[b][1,4]oxazin-3(4H)-one] belongs 2.3 nM. For `CC1(O)CC(c2ccc(Cc3cc4cnccc4[nH]c3=O)cc2)C1` (stereo not shown) [compound 162, 3-(4-(3-hydroxy-3-methylcyclobutyl)benzyl)-1,6-naphthyridin-2(1H)-one], the EC50 was found to be 6.8 nM. Under `Cn1c(=O)c(CC2CC2c2ccccc2)cc2ccccc21` (stereo not shown) [Example 175, 1-Methyl-3-((2-phenylcyclopropyl)methyl)quinolin-2(1H)-one] stands 7.7 nM; under `O=c1[nH]c2ccccc2cc1Cc1cnc(N2CCCC2)s1` [Example 139, 3-((2-(pyrrolidin-1-yl)thiazol-5-yl)methyl)quinolin-2(1H)-one], 8.5 nM; under `O=c1[nH]c2ccccc2cc1Cc1ccc(N2CCNCC2)cc1` [Example 59, 3-(4-(piperazin-1-yl)benzyl)quinolin-2(1H)-one], 23.6 nM.

`O=c1[nH]c2ccccc2cc1Cc1nnc(C2CCC2)o1` [Example 32, 3-((5-cyclobutyl-1,3,4-oxadiazol-2-yl)methyl)quinolin-2(1H)-one]: the EC50 was 168 nM. For `NS(=O)(=O)c1c(Cl)cc(Cc2cc3ccccc3[nH]c2=O)cc1Cl` [Example 71, 2,6-dichloro-4-((2-oxo-1,2-dihydroquinolin-3-yl)methyl)benzenesulfonamide], the EC50 stood at 3.7 nM. Under `O=c1[nH]c2ccccc2cc1Cc1cnc(-c2ccc(F)cc2)o1` [Example 138, 3-((2-(4-fluorophenyl)oxazol-5-yl)methyl)quinolin-2(1H)-one] stands 36.9 nM. Under `Cc1noc(C(C)C)c1-c1nnc(Cc2cc3ccccc3[nH]c2=O)o1` [Example 15, 3-((5-(5-isopropyl-3-methylisoxazol-4-yl)-1,3,4-oxadiazol-2-yl)methyl)quinolin-2(1H)-one] stands 13.7 nM; under `O=C1COc2c(Cc3cc4ccccc4[nH]c3=O)cccc2N1` [Example 122, 8-((2-oxo-1,2-dihydroquinolin-3-yl)methyl)-2H-benzo[b][1,4]oxazin-3(4H)-one], 6.6 nM. Under `N#CC1(c2ccc(Cc3cc4ccccc4[nH]c3=O)cc2)CCOCC1` [Example 107, 4-(4-((2-oxo-1,2-dihydroquinolin-3-yl)methyl)phenyl)tetrahydro-2H-pyran-4-carbonitrile] stands 3.2 nM. In the case of `CC(=O)NCc1ccc(Cc2cc3ccccc3[nH]c2=O)cn1` [Example 84, N-((5-((2-oxo-1,2-dihydroquinolin-3-yl)methyl)pyridin-2-yl)methyl)acetamide], the EC50 worked out at 13.8 nM.

Regarding `O=c1[nH]c2cccnc2cc1Cc1cccc(OC(F)(F)F)c1` [Example 105, 3-(3-(trifluoromethoxy)benzyl)-1,5-naphthyridin-2(1H)-one], the EC50 worked out at 619 nM. Regarding `O=c1[nH]c2ccccc2cc1Cc1ccc2c(c1)S(=O)(=O)CC2` [Example 81, 3-((1,1-dioxido-2,3-dihydrobenzo[b]thiophen-6-yl)methyl)quinolin-2(1H)-one], the EC50 came to 2.4 nM. Under `O=c1[nH]c2ccccc2cc1Cc1nnc(-c2c[nH]c(C3CC3)n2)o1` [Example 18, 3-((5-(2-cyclopropyl-1H-imidazol-4-yl)-1,3,4-oxadiazol-2-yl)methyl)quinolin-2(1H)-one] stands 23.4 nM. To `Cc1noc(C)c1Cc1nnc(Cc2cc3ccccc3[nH]c2=O)o1` [Example 24, 3-((5-((3,5-dimethylisoxazol-4-yl)methyl)-1,3,4-oxadiazol-2-yl)methyl)quinolin-2(1H)-one] belongs 194 nM; to `O=c1[nH]c2cnccc2cc1Cc1ccccc1` [Example 104, 3-benzyl-1,7-naphthyridin-2(1H)-one], 9180 nM; to `O=c1[nH]c2ccccc2cc1Cc1ccc2ncccc2c1` [Example 152, 3-(Quinolin-6-ylmethyl)quinolin-2(1H)-one], 5.3 nM. To `O=c1[nH]c2ccccc2cc1Cc1ccc(-c2cnccn2)c(F)c1` [Example 127, 3-(3-fluoro-4-(pyrazin-2-yl)benzyl)quinolin-2(1H)-one] belongs 2.1 nM. As for `O=c1[nH]c2ccccc2cc1Cc1cnn(CC2(C(F)F)CC2)c1` [Example 111, 3-((1-((1-(difluoromethyl)cyclopropyl)methyl)-1H-pyrazol-4-yl)methyl)quinolin-2(1H)-one], the 50% effective concentration (EC50) was found to be 24.6 nM. Under `O=C1N(c2ccc(Cc3cc4cnccc4[nH]c3=O)cc2)CCC1(F)F` [compound 62, 3-(4-(3,3-difluoro-2-oxopyrrolidin-1-yl)benzyl)-1,6-naphthyridin-2(1H)-one] stands 6 nM; under `O=c1[nH]c2ccncc2cc1Cc1ccc2ccccc2c1` [Example 115, 3-(naphthalen-2-ylmethyl)-1,6-naphthyridin-2(1H)-one], 1.4 nM. To `N#Cc1cnn2ccc(Cc3cc4ccccc4[nH]c3=O)cc12` [Example 92, 5-((2-oxo-1,2-dihydroquinolin-3-yl)methyl)pyrazolo[1,5-a]pyridine-3-carbonitrile] belongs 1.7 nM; to `COc1cc(CNS(C)(=O)=O)ccc1Cc1cc2ccccc2[nH]c1=O` [Example 74, N-(3-methoxy-4-((2-oxo-1,2-dihydroquinolin-3-yl)methyl)benzyl)methanesulfonamide], 6.9 nM; to `CS(=N)(=O)Cc1ccc(Cc2cc3ccccc3[nH]c2=O)cc1` (single isomer, unassigned) [Example 186, 3-(4-(((R or S)-methylsulfonimidoyl)methyl)benzyl)quinolin-2(1H)-one], 28.2 nM. To `Cc1nc(C)c(Cc2cc3ccccc3[nH]c2=O)s1` [Example 134, 3-((2,4-dimethylthiazol-5-yl)methyl)quinolin-2(1H)-one] belongs 5.1 nM. Turning to `COc1cc(C#N)cc(Cc2cc3ccccc3[nH]c2=O)c1` [Example 133, 3-methoxy-5-((2-oxo-1,2-dihydroquinolin-3-yl)methyl)benzonitrile], the EC50 came out at 2 nM. Under `CC1CN(c2ccc(Cc3cc4cnccc4[nH]c3=O)cc2)C(=O)O1` (single isomer, unassigned) [Example 189, (S or R)-5-methyl-3-(4-((2-oxo-1,2-dihydro-1,6-naphthyridin-3-yl)methyl)phenyl)oxazolidin-2-one] stands 16.7 nM; under `O=c1[nH]c2ccccc2cc1Cc1ccc(-c2cn[nH]c2)cc1` [Example 125, 3-(4-(1H-pyrazol-4-yl)benzyl)quinolin-2(1H)-one], 6.1 nM.

Turning to `O=c1[nH]c2ccccc2cc1Cc1coc2ccccc12` [Example 136, 3-(benzofuran-3-ylmethyl)quinolin-2(1H)-one], the EC50 was 0.5 nM.

Source of the values: US20240287022A1 (Merck Sharp & Dohme LLC, priority 2021, published 2024).
